Assays:
[1] = target: hGYS2 enzyme (recombinant hGYS2/GN1 protein) (Homo sapiens (Human), UniProt P54840); experiment: GYS2 coupled enzyme assay (PK/LDH); type: biochemical; conditions: geometric mean of at least 2 assay runs on separate days, read-out: Avg_IC50
From the text: The GYS2 coupled enzyme assay is a kinetic biochemical assay that indirectly quantifies the rate of glycogen synthesis by coupling the conversion of GYS2 substrate UDP-glucose into UDP with downstream enzymatic reactions. UDP is released from UDP-glucose as glucose monomers are linked into the growing glycogen strand by GYS2. The coupled assay then proceeds with pyruvate kinase utilizing UDP and phospho(enol)pyruvate (PEP) to form pyruvate. Lactate dehydrogenase then converts pyruvate and NADH into lactate and NAD+. Oxidation of NADH to NAD+ can be measured continuously with a plate reader by quantifying the decrease in NADH absorbance at 340 nm over time.
Compounds that inhibit the hGYS2 enzyme and, subsequently, the downstream conversion of NADH to NAD+, were tested using assay ready plates (black, clear bottom 384 well plates) in a final DMSO reaction volume of 2.5% DMSO. The Assay Buffer contained 50 mM Tris pH 7.5, 2 mM MgCl2, and 100 mM KCl. Fresh stocks of BSA at a final concentration of 0.02% and TCEP 1 mM were added before splitting buffer into hGYS2 buffer and substrate buffer. To the hGYS2 buffer, rabbit liver glycogen was added at a final concentration of 0.2% glycogen. Glucose-6-Phosphate was added at 2 mM, recombinant hGYS2/GN1 protein was added at 200 nM to the substrate buffer, phosphoenolpyruvate (PEP) was added at 2 mM, UDP-Glucose was added at 2 mM, NADH was added at 0.6 mM, and Pyruvate Kinase/Lactate Dehydrogenase was added at 20 units/mL. The reaction was initiated by mixing hGYS2 buffer and substrate buffer at a 1:1 ratio. Both buffers were plated using a liquid dispensing device with hGYS2 buffer plated first followed by the substrate buffer. Plates were spun briefly to eliminate air bubbles and are immediately read in continuous mode at an absorbance of 340 nm, for 10 time points in one-minute increments, for a total of 10 minutes. The slope from these 10 time points was normalized to the positive and negative control wells. The duplicate % inhibition values are then averaged and fit to a Hill equation for dose response according to the Levenberg-Marquardt algorithm with the Hill equation maximum set to 100 and the minimum set to 0.
The results are shown in Table 4 below, which reports the IC50 of each compound. Unless otherwise specified, IC50 values are reported as the geometric mean of at least 2 assay runs on separate days. As shown in the table below, the compounds of the present invention are not potent inhibitors of human GYS2. Unless otherwise specified, IC50 values are reported as the geometric mean of at least two assay runs on separate days. Each run represents the average of a technical replicate, where each compound was assayed twice in the same plate. A superscript “#” symbol in Table 4 indicates results from a single assay run.

[2] = target: hGYS1 enzyme (recombinant hGYS1/GN1 protein) (Homo sapiens (Human), UniProt P13807); experiment: GYS1 coupled enzyme assay (PK/LDH); type: biochemical; conditions: hGYS1/GN1 50 nM, UDP-Glucose 0.8 mM, G6P 1 mM; geometric mean of at least 2 runs
hGYS1 enzyme (recombinant hGYS1/GN1 protein), sequence (P13807 whole entry): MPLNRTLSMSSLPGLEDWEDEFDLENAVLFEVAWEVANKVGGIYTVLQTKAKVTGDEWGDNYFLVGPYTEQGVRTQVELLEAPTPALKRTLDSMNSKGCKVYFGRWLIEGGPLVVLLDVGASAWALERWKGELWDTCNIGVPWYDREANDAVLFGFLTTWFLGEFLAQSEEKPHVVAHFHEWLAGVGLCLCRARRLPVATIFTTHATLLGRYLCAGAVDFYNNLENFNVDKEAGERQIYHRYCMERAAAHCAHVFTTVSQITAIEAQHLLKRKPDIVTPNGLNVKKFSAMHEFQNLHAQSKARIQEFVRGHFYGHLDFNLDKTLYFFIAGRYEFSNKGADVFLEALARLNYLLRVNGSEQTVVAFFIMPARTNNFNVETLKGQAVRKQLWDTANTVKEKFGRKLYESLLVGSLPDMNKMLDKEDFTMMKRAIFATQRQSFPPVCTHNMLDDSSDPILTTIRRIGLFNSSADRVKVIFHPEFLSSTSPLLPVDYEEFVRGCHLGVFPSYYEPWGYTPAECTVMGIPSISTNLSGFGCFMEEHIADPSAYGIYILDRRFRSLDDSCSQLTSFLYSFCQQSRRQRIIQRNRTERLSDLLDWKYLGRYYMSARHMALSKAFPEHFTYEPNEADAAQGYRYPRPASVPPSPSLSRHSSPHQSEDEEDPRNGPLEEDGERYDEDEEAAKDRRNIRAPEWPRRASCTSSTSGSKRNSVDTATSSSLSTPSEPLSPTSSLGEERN
hGYS1 enzyme (recombinant hGYS1/GN1 protein), sequence (P46976 whole entry partner): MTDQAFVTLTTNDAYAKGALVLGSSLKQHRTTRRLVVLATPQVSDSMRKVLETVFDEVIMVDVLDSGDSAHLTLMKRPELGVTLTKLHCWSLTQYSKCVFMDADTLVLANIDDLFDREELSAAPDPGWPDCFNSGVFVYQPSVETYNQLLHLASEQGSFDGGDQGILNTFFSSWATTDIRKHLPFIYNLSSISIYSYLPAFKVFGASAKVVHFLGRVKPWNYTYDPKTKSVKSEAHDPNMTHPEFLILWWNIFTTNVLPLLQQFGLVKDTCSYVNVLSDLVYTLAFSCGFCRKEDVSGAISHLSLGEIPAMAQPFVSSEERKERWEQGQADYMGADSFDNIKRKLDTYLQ

hGYS2 enzyme (recombinant hGYS2/GN1 protein), sequence (P54840 whole entry): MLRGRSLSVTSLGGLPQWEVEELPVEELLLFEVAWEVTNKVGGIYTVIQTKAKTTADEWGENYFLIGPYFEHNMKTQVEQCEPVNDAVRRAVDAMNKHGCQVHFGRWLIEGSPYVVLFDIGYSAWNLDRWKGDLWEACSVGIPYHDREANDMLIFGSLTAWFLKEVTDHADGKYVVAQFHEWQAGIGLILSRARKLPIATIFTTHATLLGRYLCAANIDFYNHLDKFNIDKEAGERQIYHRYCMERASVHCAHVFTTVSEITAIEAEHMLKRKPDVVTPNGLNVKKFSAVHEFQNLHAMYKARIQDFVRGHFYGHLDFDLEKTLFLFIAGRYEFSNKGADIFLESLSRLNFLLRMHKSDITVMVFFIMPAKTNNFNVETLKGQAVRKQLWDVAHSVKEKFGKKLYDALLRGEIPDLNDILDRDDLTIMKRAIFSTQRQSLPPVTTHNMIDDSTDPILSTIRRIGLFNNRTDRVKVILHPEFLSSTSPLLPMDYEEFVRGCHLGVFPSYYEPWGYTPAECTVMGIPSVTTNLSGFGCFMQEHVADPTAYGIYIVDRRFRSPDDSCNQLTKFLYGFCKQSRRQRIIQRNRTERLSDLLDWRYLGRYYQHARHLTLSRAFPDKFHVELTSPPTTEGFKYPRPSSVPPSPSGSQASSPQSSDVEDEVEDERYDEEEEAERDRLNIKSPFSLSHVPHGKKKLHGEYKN
hGYS2 enzyme (recombinant hGYS2/GN1 protein), sequence (P46976 whole entry partner): as the sequence (P46976 whole entry partner) above

Structure (SMILES): CC(C)c1ccc([C@@H](NC(=O)[C@@H]2C[C@@H](F)CN2C(=O)CNC(=O)N2CCN(C(=O)OC(C)(C)C)CC2)c2ccccc2)cc1F [Compound 366, tert-butyl 4-({2-[(2S,4R)-4-fluoro-2-{[(S)-[3-fluoro-4-(propan-2-yl)phenyl](phenyl)methyl]carbamoyl}pyrrolidin-1-yl]-2-oxoethyl}carbamoyl) piperazine-1-carboxylate]
- IC50 [1]: > 100000 nM
- IC50 [2]: 20 nM

Structure (SMILES): CC(C)c1ccc([C@@H](NC(=O)[C@@H]2CCCN2C(=O)Cc2cnn[nH]2)c2cccc3[nH]c(=O)[nH]c23)cc1 [Compound 644, (2S)-N-[(R)-(2-oxo-2,3-dihydro-1H-1,3-benzodiazol-4-yl)[4-(propan-2-yl)phenyl]methyl]-1-[2-(1H-1,2,3-triazol-5-yl)acetyl]pyrrolidine-2-carboxamide]
- IC50 [1]: > 100000 nM
- IC50 [2]: 273 nM

Structure (SMILES): Cc1nc(CC(=O)N2C[C@H](F)C[C@H]2C(=O)N[C@@H](c2ccccc2)c2ccc(C(C)C)cc2)no1 [Compound 29, (2S,4R)-4-fluoro-1-[2-(5-methyl-1,2,4-oxadiazol-3-yl)acetyl]-N-[(S)-phenyl[4-(propan-2-yl)phenyl]methyl]pyrrolidine-2-carboxamide]
- IC50 [1]: > 100000 nM
- IC50 [2]: 70 nM

Structure (SMILES): CC(C)c1ccc([C@@H](NC(=O)[C@@H]2C[C@@H](F)CN2C(=O)CNC2(C)COC2)c2ccccc2)cc1 [Compound 193, (2S,4R)-4-fluoro-1-{2-[(3-methyloxetan-3-yl)amino]acetyl}-N-[(S)-phenyl[4-(propan-2-yl)phenyl]methyl]pyrrolidine-2-carboxamide]
- IC50 [1]: > 100000 nM
- IC50 [2]: 303 nM

Structure (SMILES): CC(=O)N1CCC(C(C)C(=O)N2C[C@H](F)C[C@H]2C(=O)N[C@@H](c2ccccc2)c2ccc(C(C)C)cc2)CC1 (stereo partly drawn) [Compound 180, (2S,4R)-1-[2-(1-acetylpiperidin-4-yl)propanoyl]-4-fluoro-N-[(S)-phenyl[4-(propan-2-yl)phenyl]methyl]pyrrolidine-2-carboxamide]
- IC50 [1]: > 100000 nM
- IC50 [2]: 235 nM

Structure (SMILES): O=C(N[C@@H](c1ccccc1)c1ccc(C2CC2)c(F)c1)[C@@H]1C[C@@H](F)CN1C(=O)Cn1cccn1 [Compound 435, (2S,4R)-N-[(S)-(4-cyclopropyl-3-fluorophenyl)(phenyl)methyl]-4-fluoro-1-[2-(1H-pyrazol-1-yl)acetyl]pyrrolidine-2-carboxamide]
- IC50 [1]: > 100000 nM
- IC50 [2]: 149 nM

Structure (SMILES): CC(=O)N1C[C@H]2COC[C@@]2(C(=O)N2C[C@H](F)C[C@H]2C(=O)N[C@@H](c2ccccc2)c2ccc(C(C)C)cc2)C1 [Compound 3, (2S,4R)-1-[(3aS,6aS)-5-acetyl-hexahydro-1H-furo[3,4-c]pyrrole-3a-carbonyl]-4-fluoro-N-[(S)-phenyl[4-(propan-2-yl)phenyl]methyl]pyrrolidine-2-carboxamide]
- IC50 [1]: > 100000 nM
- IC50 [2]: 168 nM

Structure (SMILES): Cc1nnc(CC(=O)N2C[C@H](F)C[C@H]2C(=O)N[C@@H](c2ccccc2)c2ccc(C(C)C)cc2)o1 [Compound 10, (2S,4R)-4-fluoro-1-[2-(5-methyl-1,3,4-oxadiazol-2-yl)acetyl]-N-[(S)-phenyl[4-(propan-2-yl)phenyl]methyl]pyrrolidine-2-carboxamide]
- IC50 [1]: > 100000 nM
- IC50 [2]: 50 nM

Structure (SMILES): CC(C)c1ccc([C@@H](NC(=O)[C@@H]2C[C@@H](F)CN2C(=O)Cn2ccnc2)c2ccccc2)cc1 [Compound 23, (2S,4R)-4-fluoro-1-[2-(1H-imidazol-1-yl)acetyl]-N-[(S)-phenyl[4-(propan-2-yl)phenyl]methyl]pyrrolidine-2-carboxamide]
- IC50 [1]: > 100000 nM
- IC50 [2]: 70 nM

Structure (SMILES): CC(C)c1ccc([C@@H](NC(=O)[C@@H]2C[C@@H](F)CN2C(=O)COc2cccnc2)c2ccccc2)cc1 [Compound 48, (2S,4R)-4-fluoro-N-[(S)-phenyl[4-(propan-2-yl)phenyl]methyl]-1-[2-(pyridin-3-yloxy)acetyl]pyrrolidine-2-carboxamide]
- IC50 [1]: > 100000 nM
- IC50 [2]: 44 nM

Structure (SMILES): CC(=O)N1CCC[C@@H](CC(=O)N2C[C@H](F)C[C@H]2C(=O)N[C@@H](c2ccccc2)c2ccc(C(C)C)cc2)C1 [Compound 171, (2S,4R)-1-{2-[(3S)-1-acetylpiperidin-3-yl]acetyl}-4-fluoro-N-[(S)-phenyl[4-(propan-2-yl)phenyl]methyl]pyrrolidine-2-carboxamide]
- IC50 [1]: > 100000 nM
- IC50 [2]: 97 nM

Structure (SMILES): CC(=O)N1CC(C)(C(=O)N2C[C@H](F)C[C@H]2C(=O)N[C@@H](c2ccccc2)c2ccc(C(C)C)cc2)C1 [Compound 146, (2S,4R)-1-(1-acetyl-3-methylazetidine-3-carbonyl)-4-fluoro-N-[(S)-phenyl[4-(propan-2-yl)phenyl]methyl]pyrrolidine-2-carboxamide]
- IC50 [1]: > 100000 nM
- IC50 [2]: 206 nM

Structure (SMILES): CC(C)c1ccc([C@@H](NC(=O)[C@@H]2C[C@@H](F)CN2C(=O)CC#N)c2ccccc2)cc1 [Compound 188, (2S,4R)-1-(2-cyanoacetyl)-4-fluoro-N-[(S)-phenyl[4-(propan-2-yl)phenyl]methyl]pyrrolidine-2-carboxamide]
- IC50 [1]: > 100000 nM
- IC50 [2]: 237 nM

Structure (SMILES): CC(C)c1ccc([C@@H](NC(=O)[C@@H]2C[C@@H](F)CN2C(=O)Cc2noc(C(C)C)n2)c2ccccc2)cc1 [Compound 87, (2S,4R)-4-fluoro-N-[(S)-phenyl[4-(propan-2-yl)phenyl]methyl]-1-{2-[5-(propan-2-yl)-1,2,4-oxadiazol-3-yl]acetyl}pyrrolidine-2-carboxamide]
- IC50 [1]: > 100000 nM
- IC50 [2]: 28 nM

Structure (SMILES): CC(=O)N(CC(N)=O)CC(=O)N1C[C@H](F)C[C@H]1C(=O)N[C@@H](c1ccccc1)c1ccc(C(C)C)cc1 [Compound 189, (2S,4R)-1-{2-[N-(carbamoylmethyl)acetamido]acetyl}-4-fluoro-N-[(S)-phenyl[4-(propan-2-yl)phenyl]methyl]pyrrolidine-2-carboxamide]
- IC50 [1]: > 100000 nM
- IC50 [2]: 95 nM

Structure (SMILES): CC(C)c1ccc([C@@H](NC(=O)[C@@H]2C[C@@H](F)CN2C(=O)CCc2cnccn2)c2ccccc2)cc1 [Compound 59, (2S,4R)-4-fluoro-N-[(S)-phenyl[4-(propan-2-yl)phenyl]methyl]-1-[3-(pyrazin-2-yl)propanoyl]pyrrolidine-2-carboxamide]
- IC50 [1]: > 100000 nM
- IC50 [2]: 85 nM

Structure (SMILES): CC(=O)N1CC2(CC(C(=O)N3C[C@H](F)C[C@H]3C(=O)N[C@@H](c3ccccc3)c3ccc(C(C)C)cc3)=NO2)C1 [Compound 151, (2S,4R)-1-{2-acetyl-5-oxa-2,6-diazaspiro[3.4]oct-6-ene-7-carbonyl}-4-fluoro-N-[(S)-phenyl[4-(propan-2-yl)phenyl]methyl]pyrrolidine-2-carboxamide]
- IC50 [1]: > 100000 nM
- IC50 [2]: 241 nM

Structure (SMILES): CC(C)c1ccc([C@@H](NC(=O)[C@@H]2C[C@@H](F)CN2C(=O)CN2C(=O)CNC2=O)c2ccccc2)cc1 [Compound 117, (2S,4R)-1-[2-(2,5-dioxoimidazolidin-1-yl)acetyl]-4-fluoro-N-[(S)-phenyl[4-(propan-2-yl)phenyl]methyl]pyrrolidine-2-carboxamide]
- IC50 [1]: > 100000 nM
- IC50 [2]: 49 nM

Structure (SMILES): CC(=O)N1CC[C@H](O)[C@H]1C(=O)N[C@@H](c1ccccc1)c1ccc(C(C)C)cc1 [Compound 206, (2S,3S)-1-acetyl-3-hydroxy-N-[(S)-phenyl[4-(propan-2-yl)phenyl]methyl]pyrrolidine-2-carboxamide]
- IC50 [1]: > 100000 nM
- IC50 [2]: 2480 nM

Structure (SMILES): CC(C)c1ccc([C@@H](NC(=O)[C@@H]2C[C@@H](F)CN2C(=O)C(C)n2cncn2)c2ccccc2)cc1 (stereo partly drawn) [Compound 34, (2S,4R)-4-fluoro-N-[(S)-phenyl[4-(propan-2-yl)phenyl]methyl]-1-[2-(1H-1,2,4-triazol-1-yl)propanoyl]pyrrolidine-2-carboxamide]
- IC50 [1]: > 100000 nM
- IC50 [2]: 75 nM

Structure (SMILES): CC(C)c1ccc([C@@H](NC(=O)[C@@H]2C[C@@H](F)CN2C(=O)C(O)C(C)C)c2ccccc2)cc1 (stereo partly drawn) [Compound 185, (2S,4R)-4-fluoro-1-(2-hydroxy-3-methylbutanoyl)-N-[(S)-phenyl[4-(propan-2-yl)phenyl]methyl]pyrrolidine-2-carboxamide]
- IC50 [1]: > 100000 nM
- IC50 [2]: 26 nM

Source: patent US11814367B2, “Inhibitors of glycogen synthase 1 (GYS1) and methods of use thereof” (Maze Therapeutics, Inc., priority 2021, dated 2023)
